Experiments:
Design in all cases: scale not given here
ABUTH Velvetleaf [1] = experiment: Preemergence herbicidal evaluation, ABUTH; type: in vivo, Abutilon theophrasti, Medic.; settings: preemergence
In short: (§1)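 Seeds mixed with potting soil in cups, then sprayed preemergence with aqueous acetone test solution at about 0.013 to 0.800 kg per hectare equivalent. Cups kept under standard greenhouse care; plants rated on a visual scale four to five weeks after treatment.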

ABUTH Velvetleaf [2] = experiment: Postemergence herbicidal evaluation, ABUTH; type: in vivo, Abutilon theophrasti, Medic.; settings: postemergence spray, rated about two-three weeks after treatment
In short: (§2)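 For this test, compound in an 80/20 acetone/water vehicle with 1.0% seed oil was sprayed over two-week-old seedlings at about 0.006 to 0.400 kg per hectare. Injury was assessed visually two to three weeks on.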

ORYSAT Rice, Tebonnet [3] = experiment: Preemergence herbicidal evaluation, ORYSAT; type: in vivo, Oryza sativa, (L.); settings: preemergence
In short: as §1

CASOB Sicklepod [4] = experiment: Postemergence herbicidal evaluation, CASOB; type: in vivo, Cassia obtusifolia, L.; settings: postemergence spray, rated about two-three weeks after treatment
In short: as §2

ECHOG Barnyardgrass [5] = experiment: Preemergence herbicidal evaluation, ECHOG; type: in vivo, Echinochloa crus-galli, (L.) Beau; settings: preemergence
In short: as §1

GLXMAW Soybean, Williams [6] = experiment: Preemergence herbicidal evaluation, GLXMAW; type: in vivo, Glycine max, (L.) Merr. cv Williams; settings: preemergence
In short: as §1

GALAP Galium [7] = experiment: Postemergence herbicidal evaluation, GALAP; type: in vivo, Galium aparine; settings: postemergence spray, rated about two-three weeks after treatment
In short: as §2

GALAP Galium [8] = experiment: Preemergence herbicidal evaluation, GALAP; type: in vivo, Galium aparine; settings: preemergence
In short: as §1

AMBEL Ragweed, Common [9] = experiment: Preemergence herbicidal evaluation, AMBEL; type: in vivo, Ambrosia artemisifolia, L.; settings: preemergence
In short: as §1

[10] = test system: IPOHE Morningglory, Ivyleaf; experiment: Preemergence herbicidal evaluation, IPOHE; type: in vivo, Ipomoea hederacea, (L.) Jacq.; settings: preemergence
In short: as §1

CASOB Sicklepod [11] = experiment: Preemergence herbicidal evaluation, CASOB; type: in vivo, Cassia obtusifolia, L.; settings: preemergence
In short: as §1

ORYSAT Rice, Tebonnet [12] = experiment: Postemergence herbicidal evaluation, ORYSAT; type: in vivo, Oryza sativa, (L.); settings: postemergence spray, rated about two-three weeks after treatment
In short: as §2

ZEAMX Corn, Field [13] = experiment: Postemergence herbicidal evaluation, ZEAMX; type: in vivo, Zea mays, L. (Sammel-Bezeichnung); settings: postemergence spray, rated about two-three weeks after treatment
In short: as §2

[14] = test system: TRZAWR Wheat, Winter, cv Riband; experiment: Preemergence herbicidal evaluation, TRZAWR; type: in vivo, Triticum aestivum; settings: preemergence
In short: as §1

AMBEL Ragweed, Common [15] = experiment: Postemergence herbicidal evaluation, AMBEL; type: in vivo, Ambrosia artemisifolia, L.; settings: postemergence spray, rated about two-three weeks after treatment
In short: as §2

GLXMAW Soybean, Williams [16] = experiment: Postemergence herbicidal evaluation, GLXMAW; type: in vivo, Glycine max, (L.) Merr. cv Williams; settings: postemergence spray, rated about two-three weeks after treatment
In short: as §2

[17] = test system: IPOHE Morningglory, Ivyleaf; experiment: Postemergence herbicidal evaluation, IPOHE; type: in vivo, Ipomoea hederacea, (L.) Jacq.; settings: postemergence spray, rated about two-three weeks after treatment
In short: as §2

[18] = test system: CHEAL Lambsquarters, Common; experiment: Preemergence herbicidal evaluation, CHEAL; type: in vivo, Chenopodium album, L.; settings: preemergence
In short: as §1

ECHOG Barnyardgrass [19] = experiment: Postemergence herbicidal evaluation, ECHOG; type: in vivo, Echinochloa crus-galli, (L.) Beau; settings: postemergence spray, rated about two-three weeks after treatment
In short: as §2

SETVI Foxtail, Green [20] = experiment: Preemergence herbicidal evaluation, SETVI; type: in vivo, Setaria viridis, (L.) Beau; settings: preemergence
In short: as §1

[21] = test system: CHEAL Lambsquarters, Common; experiment: Postemergence herbicidal evaluation, CHEAL; type: in vivo, Chenopodium album, L.; settings: postemergence spray, rated about two-three weeks after treatment
In short: as §2

ZEAMX Corn, Field [22] = experiment: Preemergence herbicidal evaluation, ZEAMX; type: in vivo, Zea mays, L. (Sammel-Bezeichnung); settings: preemergence
In short: as §1

SETVI Foxtail, Green [23] = experiment: Postemergence herbicidal evaluation, SETVI; type: in vivo, Setaria viridis, (L.) Beau; settings: postemergence spray, rated about two-three weeks after treatment
In short: as §2

[24] = test system: TRZAWR Wheat, Winter, cv Riband; experiment: Postemergence herbicidal evaluation, TRZAWR; type: in vivo, Triticum aestivum; settings: postemergence spray, rated about two-three weeks after treatment
In short: as §2

## COCc1ccccc1-n1nnc2cc(F)c(-n3c(=O)cc(C(F)(F)F)n(C)c3=O)cc21 [Example 26]
ABUTH Velvetleaf [1]; rate 0.016 kg/ha
  ABUTH herbicidal rating: 9.0
ABUTH Velvetleaf [1]; rate 0.032 kg/ha
  ABUTH herbicidal rating: 9.0
ABUTH Velvetleaf [1]; rate 0.062 kg/ha
  ABUTH herbicidal rating: 9.0
ABUTH Velvetleaf [1]; rate 0.125 kg/ha
  ABUTH herbicidal rating: 9.0
ABUTH Velvetleaf [2]; 0.008 kg/ha
  Postemergence herbicidal rating ABUTH: 9.0
ABUTH Velvetleaf [2]; 0.016 kg/ha
  Postemergence herbicidal rating ABUTH: 9.0
ABUTH Velvetleaf [2]; 0.032 kg/ha
  Postemergence herbicidal rating ABUTH: 9.0
ABUTH Velvetleaf [2]; 0.062 kg/ha
  Postemergence herbicidal rating ABUTH: 9.0
ORYSAT Rice, Tebonnet [3]; rate 0.016 kg/ha
  ORYSAT herbicidal rating: 0.0
ORYSAT Rice, Tebonnet [3]; rate 0.032 kg/ha
  ORYSAT herbicidal rating: 3.0
ORYSAT Rice, Tebonnet [3]; rate 0.062 kg/ha
  ORYSAT herbicidal rating: 5.0
ORYSAT Rice, Tebonnet [3]; rate 0.125 kg/ha
  ORYSAT herbicidal rating: 7.0
CASOB Sicklepod [4]; 0.008 kg/ha
  Postemergence herbicidal rating CASOB: 1.0
CASOB Sicklepod [4]; 0.016 kg/ha
  Postemergence herbicidal rating CASOB: 2.0
CASOB Sicklepod [4]; 0.032 kg/ha
  Postemergence herbicidal rating CASOB: 2.0
CASOB Sicklepod [4]; 0.062 kg/ha
  Postemergence herbicidal rating CASOB: 4.0
ECHOG Barnyardgrass [5]; rate 0.016 kg/ha
  ECHCG herbicidal rating: 1.0
ECHOG Barnyardgrass [5]; rate 0.032 kg/ha
  ECHCG herbicidal rating: 6.0
ECHOG Barnyardgrass [5]; rate 0.062 kg/ha
  ECHCG herbicidal rating: 7.0
ECHOG Barnyardgrass [5]; rate 0.125 kg/ha
  ECHCG herbicidal rating: 9.0
GLXMAW Soybean, Williams [6]; rate 0.016 kg/ha
  GLXMAW herbicidal rating: 1.0
GLXMAW Soybean, Williams [6]; rate 0.032 kg/ha
  GLXMAW herbicidal rating: 2.0
GLXMAW Soybean, Williams [6]; rate 0.062 kg/ha
  GLXMAW herbicidal rating: 9.0
GLXMAW Soybean, Williams [6]; rate 0.125 kg/ha
  GLXMAW herbicidal rating: 5.0
GALAP Galium [7]; 0.008 kg/ha
  Postemergence herbicidal rating GALAP: 1.0
GALAP Galium [7]; 0.016 kg/ha
  Postemergence herbicidal rating GALAP: 1.0
GALAP Galium [7]; 0.032 kg/ha
  Postemergence herbicidal rating GALAP: 2.0
GALAP Galium [7]; 0.062 kg/ha
  Postemergence herbicidal rating GALAP: 6.0
GALAP Galium [8]; rate 0.016 kg/ha
  GALAP herbicidal rating: 0.0
GALAP Galium [8]; rate 0.032 kg/ha
  GALAP herbicidal rating: 0.0
GALAP Galium [8]; rate 0.062 kg/ha
  GALAP herbicidal rating: 7.0
GALAP Galium [8]; rate 0.125 kg/ha
  GALAP herbicidal rating: 8.0
AMBEL Ragweed, Common [9]; rate 0.016 kg/ha
  AMBEL herbicidal rating: 2.0
AMBEL Ragweed, Common [9]; rate 0.032 kg/ha
  AMBEL herbicidal rating: 7.0
AMBEL Ragweed, Common [9]; rate 0.062 kg/ha
  AMBEL herbicidal rating: 7.0
AMBEL Ragweed, Common [9]; rate 0.125 kg/ha
  AMBEL herbicidal rating: 9.0
[10]; rate 0.016 kg/ha
  IPOHE herbicidal rating: 0.0
[10]; rate 0.032 kg/ha
  IPOHE herbicidal rating: 9.0
[10]; rate 0.062 kg/ha
  IPOHE herbicidal rating: 6.0
[10]; rate 0.125 kg/ha
  IPOHE herbicidal rating: 9.0
CASOB Sicklepod [11]; rate 0.016 kg/ha
  CASOB herbicidal rating: 0.0
CASOB Sicklepod [11]; rate 0.032 kg/ha
  CASOB herbicidal rating: 0.0
CASOB Sicklepod [11]; rate 0.062 kg/ha
  CASOB herbicidal rating: 7.0
CASOB Sicklepod [11]; rate 0.125 kg/ha
  CASOB herbicidal rating: 7.0
ORYSAT Rice, Tebonnet [12]; 0.008 kg/ha
  Postemergence herbicidal rating ORYSAT: 2.0
ORYSAT Rice, Tebonnet [12]; 0.016 kg/ha
  Postemergence herbicidal rating ORYSAT: 2.0
ORYSAT Rice, Tebonnet [12]; 0.032 kg/ha
  Postemergence herbicidal rating ORYSAT: 3.0
ORYSAT Rice, Tebonnet [12]; 0.062 kg/ha
  Postemergence herbicidal rating ORYSAT: 4.5
ZEAMX Corn, Field [13]; 0.008 kg/ha
  Postemergence herbicidal rating ZEAMX: 3.5
ZEAMX Corn, Field [13]; 0.016 kg/ha
  Postemergence herbicidal rating ZEAMX: 4.0
ZEAMX Corn, Field [13]; 0.032 kg/ha
  Postemergence herbicidal rating ZEAMX: 4.0
ZEAMX Corn, Field [13]; 0.062 kg/ha
  Postemergence herbicidal rating ZEAMX: 6.5
[14]; rate 0.016 kg/ha
  TRZAWR herbicidal rating: 0.0
[14]; rate 0.062 kg/ha
  TRZAWR herbicidal rating: 6.0
[14]; rate 0.125 kg/ha
  TRZAWR herbicidal rating: 8.0
AMBEL Ragweed, Common [15]; 0.008 kg/ha
  Postemergence herbicidal rating AMBEL: 4.0
AMBEL Ragweed, Common [15]; 0.016 kg/ha
  Postemergence herbicidal rating AMBEL: 6.0
AMBEL Ragweed, Common [15]; 0.032 kg/ha
  Postemergence herbicidal rating AMBEL: 7.0
AMBEL Ragweed, Common [15]; 0.062 kg/ha
  Postemergence herbicidal rating AMBEL: 9.0
GLXMAW Soybean, Williams [16]; 0.008 kg/ha
  Postemergence herbicidal rating GLXMAW: 4.5
GLXMAW Soybean, Williams [16]; 0.016 kg/ha
  Postemergence herbicidal rating GLXMAW: 5.0
GLXMAW Soybean, Williams [16]; 0.032 kg/ha
  Postemergence herbicidal rating GLXMAW: 5.5
GLXMAW Soybean, Williams [16]; 0.062 kg/ha
  Postemergence herbicidal rating GLXMAW: 9.0
[17]; 0.008 kg/ha
  Postemergence herbicidal rating IPOHE: 4.0
[17]; 0.016 kg/ha
  Postemergence herbicidal rating IPOHE: 9.0
[17]; 0.032 kg/ha
  Postemergence herbicidal rating IPOHE: 9.0
[17]; 0.062 kg/ha
  Postemergence herbicidal rating IPOHE: 9.0
[18]; rate 0.032 kg/ha
  CHEAL herbicidal rating: 7.0
[18]; rate 0.062 kg/ha
  CHEAL herbicidal rating: 9.0
[18]; rate 0.125 kg/ha
  CHEAL herbicidal rating: 9.0
ECHOG Barnyardgrass [19]; 0.008 kg/ha
  Postemergence herbicidal rating ECHCG: 1.0
ECHOG Barnyardgrass [19]; 0.016 kg/ha
  Postemergence herbicidal rating ECHCG: 1.0
ECHOG Barnyardgrass [19]; 0.032 kg/ha
  Postemergence herbicidal rating ECHCG: 1.0
ECHOG Barnyardgrass [19]; 0.062 kg/ha
  Postemergence herbicidal rating ECHCG: 3.0
SETVI Foxtail, Green [20]; rate 0.016 kg/ha
  SETVI herbicidal rating: 2.0
SETVI Foxtail, Green [20]; rate 0.032 kg/ha
  SETVI herbicidal rating: 9.0
SETVI Foxtail, Green [20]; rate 0.062 kg/ha
  SETVI herbicidal rating: 9.0
SETVI Foxtail, Green [20]; rate 0.125 kg/ha
  SETVI herbicidal rating: 9.0
[21]; 0.008 kg/ha
  Postemergence herbicidal rating CHEAL: 2.0
[21]; 0.016 kg/ha
  Postemergence herbicidal rating CHEAL: 7.0
[21]; 0.032 kg/ha
  Postemergence herbicidal rating CHEAL: 9.0
ZEAMX Corn, Field [22]; rate 0.016 kg/ha
  ZEAMX herbicidal rating: 1.0
ZEAMX Corn, Field [22]; rate 0.032 kg/ha
  ZEAMX herbicidal rating: 4.0
ZEAMX Corn, Field [22]; rate 0.062 kg/ha
  ZEAMX herbicidal rating: 7.0
ZEAMX Corn, Field [22]; rate 0.125 kg/ha
  ZEAMX herbicidal rating: 7.0
SETVI Foxtail, Green [23]; 0.008 kg/ha
  Postemergence herbicidal rating SETVI: 1.0
SETVI Foxtail, Green [23]; 0.016 kg/ha
  Postemergence herbicidal rating SETVI: 5.0
SETVI Foxtail, Green [23]; 0.032 kg/ha
  Postemergence herbicidal rating SETVI: 2.0
SETVI Foxtail, Green [23]; 0.062 kg/ha
  Postemergence herbicidal rating SETVI: 5.0
[24]; 0.008 kg/ha
  Postemergence herbicidal rating TRZAWR: 2.0
[24]; 0.016 kg/ha
  Postemergence herbicidal rating TRZAWR: 2.5
[24]; 0.032 kg/ha
  Postemergence herbicidal rating TRZAWR: 3.0
[24]; 0.062 kg/ha
  Postemergence herbicidal rating TRZAWR: 4.0
